From patent US20250295600A1, “EXTRACELLULAR VESICLES DERIVED FROM MILK AND PROCESS FOR ISOLATING THE SAME” (EVOBIOTIX SA, priority 2021, published 2025)

System: Candida albicans SC5314
Experiment: Susceptibility of Candida albicans, broth microdilution method
Type: cell-based
Details: 24 hours, replicate 1
Experimental: Susceptibility of Candida albicans SC5314 to milk EVs and milk EVs loaded with Amphotericin B (AmpB) was performed by the broth microdilution method, using RPMI-1640 medium and MOPS buffer in a concentration range from 200 nM and 0.39 nM for AmpB loaded EVs and equal particles/mL of unloaded EVs. AmpB alone was also tested at concentrations from 8 µM to 15.12 nM.
The broth micro dilution test is performed using sterile round bottomed 96 well microtiter plates. 50 μL of 1×PBS at pH 7.4 is added to Rows 1 to Row 7, except for Column 1 of Row 3 to Row 7. 100 μL of EVs (BMEV, BMEV-AmpB, GMEV and GMEV-AmpB) at 2× desired concentrations is added to Rows 4 to Row 7 of Column 1. 100 μL of AmpB at 2× desired concentration (i.e. 16 μM) is added to Row 3 of Column 1. 2-fold dilutions were performed by transferring 50 μL from Column 1 to Column 10 of Rows 3 to 7, and homogenised to ensure proper dilution of the compound by half. Row 1 was used as a blank for spectrophotometric readings and Row 2 is used as a growth control. After the plates are prepared, 2× inoculum concentration are prepared with a total cell concentration of 1e+3 to 5e+3 CFU/mL prepared in RPMI 1640 media (with glutamine, without bicarbonate, and with phenol red as a pH indicator) in MOPS according to CLSI media preparation guidelines. Each well of the microtiter plate was inoculated with 50 μL of the 2× inoculum to yield a final cell concentration of 0.5e+3 to 2.5e+3 CFU/mL in the wells. After inoculation, the plates are incubated at 35° C. for 24 hours. Post-incubation, the plates are read at 600 nm using the Thermo Scientific Multiskan Go, and data was recorded. Agitation prior to reading the plate will help with accurate readings.
10.4 g powdered RPMI 1640 medium (with glutamine and phenol red, without bicarbonate); 34.53 g MOPS (3-[N-morpholino] propanesulfonic acid) buffer.
Dissolve powdered medium in 900 mL distilled H2O. Add MOPS (final concentration of 0.165 mol/L) and stir until dissolved. While stirring, adjust the pH to 7.0 at 25° C. using 1 mol/L sodium hydroxide.
Add additional water to bring medium to a final volume of 1 L. Filter sterilize and store at 4° C. until use.
The steps for preparation of inoculum are as follows: • I. Candida albicans SC5314 was subcultured from sterile vials onto Sabouraud dextrose agar or Potato Dextrose agar and passaged to ensure purity and viability. The incubation temperature throughout was 35° C. • II. The inoculum was prepared by picking five colonies of ca. 1 mm in diameter from 24-hour old culture. The colonies were suspended in 1 mL of sterile 1×PBS at pH 7.4. A 10-fold dilution was prepared in PBS. 10 μL of the diluted inoculum with equal volume of Trypan Blue was mixed and counted using a haemocytometer. • III. The suspension should be vortexed for 15 seconds and the cell density adjusted by adding sufficient sterile 1×RPMI-1640 to yield a cell concentration of 1e+3 to 5e+3 CFU/mL.

C[C@@H]1[C@H](O)[C@@H](C)/C=C/C=C/C=C/C=C/C=C/C=C/C=C/[C@H](O[C@@H]2O[C@H](C)[C@@H](O)[C@H](N)[C@@H]2O)C[C@@H]2O[C@](O)(C[C@@H](O)C[C@@H](O)[C@H](O)CC[C@@H](O)C[C@@H](O)CC(=O)O[C@H]1C)C[C@H](O)[C@H]2C(=O)O [AmpB, Amphotericin B]
Abs (read at 600 nm) (AmpB concentration 15.12 nM): 0.13
Abs (read at 600 nm) (AmpB concentration 31.25 nM): 0.15
Abs (read at 600 nm) (AmpB concentration 62.5 nM): 0.13
Abs (read at 600 nm) (AmpB concentration 125 nM): 0.15
Abs (read at 600 nm) (AmpB concentration 250 nM): 0.13
Abs (read at 600 nm) (AmpB concentration 500 nM): 0.08
Abs (read at 600 nm) (AmpB concentration 1 μM): 0.08
Abs (read at 600 nm) (AmpB concentration 2 μM): 0.00
Abs (read at 600 nm) (AmpB concentration 4 μM): 0.00
Abs (read at 600 nm) (AmpB concentration 8 μM): 0.00
